# Results: US20250275993A1, “GLYCOSYLATION INHIBITORS AS THERAPEUTICS FOR STROKE” (The Regents of the University of California, priority 2022, published 2025)
# Assays:
# [1] = target: T1, α-mannosidase from Jack Bean (Canavalia ensiformis, UniProt C0HJB3); experiment: α-mannosidase activity assay; assay type: biochemical; conditions: 400 μM
# T1 construct: purchased M7257
# Description: a-mannosidase activity was measured using substrate p-nitrophenyl α-mannopyranoside (1 mM). Enzyme from Jack Bean (M7257) (final concentration of 0.077 U) was incubated at 37° C. in a final volume of 50 μl of 50 mM potassium phosphate buffer, pH 7.5. α-glucosidase was assayed with substrate p-nitrophenyl a-glucoside (7 mM). Enzyme from Saccharomyces cerevisiae-type 1 (Sigma, G5003) (final concentration of 0.1 U) was incubated at 37° C. in a final volume of 50 μl of PBS, pH 7.5. β-Glucosidase was assayed with substrate 4-nitrophenyl β-D-glucopyranoside (Roche). Enzyme from almond (Sigma, G0395) (final concentration of 0.002 U) was incubated at 37° C. in a final volume of 50 μl of PBS, pH 7.5 […]. The incubation was stopped by addition of an equal volume of acid-based stop solution (R&D systems, 895032). Enzymatic activity was measured at 405 nm. α-glucosidase from Saccharomyces cerevisiae type I (G5003) with p-nitrophenyl α-D-glucopyranoside (Sigma, N1377) as the substrate.
# U87MG = U87MG proliferation assay; assay type: cell-based; conditions: ManN
# Description: (§1) Proliferation assays with fibroblasts were done in low-glucose DMEM containing 1% FBS, with or without 10 ng/ml bFGF, or 100 ng/ml human EGF and the assay was ended at day 3. ARPE-19 cells were gently lifted with 0.025% trypsin and plated in RtEGM media (Clonetics) containing 2% FBS, L-glutamine, human bFGF and GA-1000. Once cells were attached to plates, serum-free RtEGM media was used to maintain the cultures. For proliferation assays, 1500 human RPE cells were plated into 96-well plates in low-glucose DMEM containing 1% FBS. A673, U87MG, Calu6 and AML12 cells were grown until confluent and were then harvested and re-suspended in appropriate assay media. For proliferation assays, cells were plated at the density of 1000-2000 cells/well in low-glucose DMEM containing 5% FBS or otherwise stated. Bovine pituitary cells (pituitary folliculostellate cells) were isolated as previously described. For proliferation assays with human epidermal keratinocytes, human DMVECs and human dermal fibroblast cells, 1000 cells/well were plated in low-glucose DMEM containing 1% FBS with or without various growth factors. The assay was ended at day 3 for bovine pituitary cells and at day 4 for all the other cell types. […] Four days later, tumor cell growth was measured by the MTS assay (Promega, Madison, WI), a colorimetric assay that measures metabolic activity of viable cells. […]
# bovine pituitary cells = experiment: Bovine pituitary cell proliferation assay; assay type: cell-based; conditions: alone or in combination with growth factors
# Description: as §1
# skin wound = experiment: Skin wound healing model (splinted wound); assay type: in vivo, mouse; conditions: topical 20 μg daily; mice; PBS group 81.5%
# Description: The model has been previously described. Briefly, C57BL/6 female mice (8-10 weeks old) were obtained from Jackson labs (Sacramento, CA). A fresh, full-thickness punch wound (4 mm diameter) using a punch (Acu Punch, Acuderm inc. Ft. Lauderdale, FL) splinted with a sterile neoprene ring (6-mm outer diameter and 4-mm inner diameter), fastened with 5-6 sutures (4-0 nylon) under the influence of Isoflurane was created on the back of the animal in a Class II Biological Safety Cabinet. For all surgical procedures, sterile technique was followed. Buprenorphine was given subcutaneously prior to awakening from anesthesia for anticipated pain. Mice were monitored until fully awake and were housed individually to minimize damage/biting/fighting to the surgical site. […] Treatment agents were prepared in PBS, sterile-filtered and 25 μl solution was applied daily directly to a wound bed for the first 4-5 days under the influence of Isoflurane, followed by daily observation. Wound closure was monitored by regular imaging and the wound area was quantified using ImageJ (National Institutes of Health, Bethesda, MD, USA). […] Epithelial gap was measured histomorphometrically using AxioVision LE Rel.4.4 software. […] Small vessels stained positive for CD31 were counted microscopically on 10 fields (20×) taken around the wound.
# brain infarction = experiment: Middle cerebral artery occlusion (MCAO) stroke model; assay type: in vivo, mouse
# T1 sequence (C0HJB3 whole entry): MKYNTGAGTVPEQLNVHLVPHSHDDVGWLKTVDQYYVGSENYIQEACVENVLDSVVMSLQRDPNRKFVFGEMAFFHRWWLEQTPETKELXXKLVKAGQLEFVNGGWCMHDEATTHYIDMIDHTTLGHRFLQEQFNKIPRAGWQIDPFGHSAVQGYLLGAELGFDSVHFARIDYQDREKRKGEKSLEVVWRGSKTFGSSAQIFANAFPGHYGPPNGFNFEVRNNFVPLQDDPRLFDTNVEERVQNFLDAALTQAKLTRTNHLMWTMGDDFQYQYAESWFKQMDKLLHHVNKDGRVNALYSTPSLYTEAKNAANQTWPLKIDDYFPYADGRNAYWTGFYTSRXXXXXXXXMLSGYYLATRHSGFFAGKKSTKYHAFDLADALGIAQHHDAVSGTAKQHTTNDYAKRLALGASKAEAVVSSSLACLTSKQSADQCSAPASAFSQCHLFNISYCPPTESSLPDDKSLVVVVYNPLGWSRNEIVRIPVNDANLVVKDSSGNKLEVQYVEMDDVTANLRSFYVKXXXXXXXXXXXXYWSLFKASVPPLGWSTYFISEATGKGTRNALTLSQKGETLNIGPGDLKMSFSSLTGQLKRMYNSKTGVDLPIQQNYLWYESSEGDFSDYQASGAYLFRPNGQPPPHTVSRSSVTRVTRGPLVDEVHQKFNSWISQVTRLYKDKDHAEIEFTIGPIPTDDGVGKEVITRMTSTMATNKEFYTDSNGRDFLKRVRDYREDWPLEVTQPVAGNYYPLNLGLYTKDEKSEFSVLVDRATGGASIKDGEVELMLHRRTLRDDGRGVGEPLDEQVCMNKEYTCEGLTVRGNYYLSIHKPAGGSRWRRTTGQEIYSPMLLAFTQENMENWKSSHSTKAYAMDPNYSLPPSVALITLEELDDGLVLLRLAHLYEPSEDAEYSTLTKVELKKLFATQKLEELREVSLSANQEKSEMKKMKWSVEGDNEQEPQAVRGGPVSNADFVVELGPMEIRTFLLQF
compound,measurement,setting,value
"N[C@H](C=O)[C@@H](O)[C@H](O)[C@H](O)CO [ManN, 2-Amino-2-deoxy-D-mannose]",inhibitory activity on α-mannosidase,[1],inhibitory activity
same,growth of U87MG,U87MG,did not promote growth
same,proliferation of bovine pituitary cells,bovine pituitary cells,no increases in proliferation
same,average closure of the wound on day 4,skin wound,75.6%
same,"histopathological alterations (H&E), Day 4","brain infarction; 40 mg ManN Day -1, 1, 3",ameliorates histopathological alterations
same,"vascular density (CD31) in cerebral cortex affected by infarct, Day 6","brain infarction; 40 mg ManN Day -1, 1, 3, 5, p<0.001",significantly increased vascular density
same,"infarction area, Day 4 MRI, first and second experiment","brain infarction; 40 mg ManN oral gavage Day -1 and every 48 hours, 4 animals per group",markedly smaller infarction area
same,"overall infarction area, combined analysis","brain infarction; 4 days post-acute ischemic event, FIG. 12D",statistically significant effect of ManN treatment in reducing overall infarction area
same,TTC staining of coronal slices at Day 4,brain infarction; FIG. 13C,lack of large regions of white staining
same,"CNS infarct volume at Day 4 (MRI), additional animals","brain infarction; p<0.001 vs vehicle, FIG. 13B",significantly reduced CNS infarct volume
same,infarct area on Day 2 and Day 4 (MRI images),"brain infarction; vs vehicle (H2O), FIG. 13A",Reduction in infarct area is noticeable
